# Measured values as given in patent US7776847B2, “Benzisothiazoles useful for treating or preventing HCV infection” (priority 2005, dated 2010).
# Tested on: HCV replicon
# Experiment: HCV replicon luciferase reporter assay
# Type: cell-based
# Conditions: Hepatitis C virus, Table 5; read-out: IC50
# Summary of the method: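 Replicon-bearing dividing cells seeded at 5,000–7,500 cells/well, grown 24 h at 37° C/5% CO2, then exposed to test compound at various concentrations for a further 24–48 h. Replication/translation read by luciferase reporter; IC50 taken as compound amount giving 50% reduction in luciferase activity.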
smiles,measurement,value
"N[C@H](C(=O)NCCNc1nsc2ccccc12)c1ccccc1 [Entry 74, (S)-2-Amino-N-(2-(benzo[d]isothiazol-3-ylamino)ethyl)-2-phenylacetamide]",IC50,> 5 µM
"CC(C)[C@H](N)C(=O)NCCNc1nsc2ccccc12 [Entry 75, (S)-2-Amino-N-(2-(benzo[d]isothiazol-3-ylamino)ethyl)-3-methylbutanamide]",IC50,> 5 µM
"Cc1cccnc1C(=O)NCCNc1nsc2ccccc12 [Entry 76, N-(2-(Benzo[d]isothiazol-3-ylamino)ethyl)-3-methylpicolinamide]",IC50,< 5 µM
"COC(=O)c1ccc(C(=O)NCCNc2nsc3ccccc23)nc1 [Entry 77, Methyl 6-(2-(Benzo[d]isothiazol-3-ylamino)ethylcarbamoyl)nicotinate]",IC50,> 5 µM
"O=C(O)c1ccc(C(=O)NCCNc2nsc3ccccc23)nc1 [Entry 78, 6-(2-(Benzo[d]isothiazol-3-ylamino)ethylcarbamoyl)nicotinic Acid]",IC50,> 5 µM
"O=C(NCCNc1nsc2ccccc12)c1ccc2ccccc2n1 [Entry 79, N-(2-(Benzo[d]isothiazol-3-ylamino)ethyl)quinoline-2-carboxamide]",IC50,> 5 µM
"COC(=O)c1cccc(C(=O)NCCNc2nsc3ccccc23)n1 [Entry 80, Methyl 6-(2-(Benzo[d]isothiazol-3-ylamino)ethylcarbamoyl)picolinate]",IC50,> 5 µM
"O=C(O)c1cccc(C(=O)NCCNc2nsc3ccccc23)n1 [Entry 81, 6-(2-(Benzo[d]isothiazol-3-ylamino)ethylcarbamoyl)picolinic Acid]",IC50,> 5 µM
"O=C(Cc1c[nH]c2ccccc12)NCCNc1nsc2ccccc12 [Entry 82, N-(2-(Benzo[d]isothiazol-3-ylamino)ethyl)-2-(1H-indol-3-yl)acetamide]",IC50,> 5 µM
"COc1cccc(S(=O)(=O)NCCCNc2nsc3ccccc23)c1 [Entry 220, N-(3-(benzo[d]isothiazol-3-ylamino)propyl)-3-methoxybenzenesulfonamide]",IC50,< 5 µM
"O=S(=O)(NCCCNc1nsc2ccccc12)c1cc(F)c(Br)cc1F [Entry 221, N-(3-(benzo[d]isothiazol-3-ylamino)propyl)-4-bromo-2,5-difluorobenzenesulfonamide]",IC50,< 5 µM
"O=S(=O)(NCCCNc1nsc2ccccc12)c1ccc(Br)s1 [Entry 222, N-(3-(benzo[d]isothiazol-3-ylamino)propyl)-5-bromothiophene-2-sulfonamide]",IC50,< 5 µM
"O=S(=O)(NCCCNc1nsc2ccccc12)c1ccc(Oc2ccc(Cl)cc2)cc1 [Entry 223, N-(3-(benzo[d]isothiazol-3-ylamino)propyl)-4-(4-chlorophenoxy)benzenesulfonamide]",IC50,< 5 µM
"N#Cc1ccc(NCCCNc2nsc3ccccc23)nc1 [Entry 224, 6-(3-(benzo[d]isothiazol-3-ylamino)propylamino)pyridine-3-carbonitrile]",IC50,< 5 µM
"COC(=O)c1cnc(NCCCNc2nsc3ccccc23)nc1C(F)(F)F [Entry 225, methyl 2-(3-(benzo[d]isothiazol-3-ylamino)propylamino)-4-(trifluoromethyl)pyrimidine-5-carboxylate]",IC50,< 5 µM
"Clc1ccc(NCCCNc2nsc3ccccc23)nc1 [Entry 226, N-(3-(5-chloropyridin-2-ylamino)propyl)benzo[d]isothiazol-3-amine]",IC50,< 5 µM
"Cc1ccnc(NCCCNc2nsc3ccccc23)c1 [Entry 227, N-(3-(4-methylpyridin-2-ylamino)propyl)benzo[d]isothiazol-3-amine]",IC50,< 5 µM
"FC(F)(F)c1ccc(NCCCNc2nsc3ccccc23)nc1 [Entry 228, N-(3-(5-(trifluoromethyl)pyridin-2-ylamino)propyl)benzo[d]isothiazol-3-amine]",IC50,< 5 µM
"N#Cc1ccnc(NCCCNc2nsc3ccccc23)c1 [Entry 229, 2-(3-(benzo[d]isothiazol-3-ylamino)propylamino)pyridine-4-carbonitrile]",IC50,< 5 µM
